Entries after “also recorded” stand apart in the source; their conditions may differ.
Key:
conscious BOO rats [1] = assay: Cystometric parameters in conscious bladder outlet obstruction (BOO) rats; format: in vivo, rat; details: i.g.; for BC, effect versus basal: Cpd (IA) 30 mg/kg, mirabegron 10 mg/kg
Procedure: Test substance effects were compared to those of the reference substance, mirabegron, marketed for overactive bladder.
• At W-6, a partial ligature of the urethra was performed. • At W-6, during 3 consecutive days, rats were treated daily with gentamycin and Ketofen® The bladder was emptied manually once a day. • From W-6 to W-1 animals were monitored and weighed once per week. • At W0 (D-2), catheters were implanted under isoflurane anesthesia. • At D0, cystometry was performed.
Appropriate amount of Cpd (IA) was weighed and dissolved in vehicle to obtain the dosing solution with the target concentration of 3 mg/mL (as free base). […]
[…] Mirabegron (from Kemprotec) was prepared fresh on the day of administration at a final concentration of 2 mg/mL (free base form). Appropriate mass of mirabegron was weighed and dissolved in vehicle (0.5% MC) at room temperature.

conscious SCI rats = assay: Cystometric parameters in conscious spinal cord injury (SCI) rats; format: in vivo, rat; details: i.g., Cpd (IA) 30 mg/kg, mirabegron 10 mg/kg
Procedure: Test substance effects were compared to those of the reference substance, the β3-adrenoceptor agonist mirabegron, marketed for overactive bladder.
• At W-5, spinal cord injury was performed at T8 level as described below. • Over W-5, rats were treated daily with gentamicin. • Over W-5 and W-4, bladder was emptied manually once a day. • From W-5 to W0, animals were weighed once per week. • At D-2 (W0), implantation of catheters was performed under isoflurane anaesthesia as described below. • At D0 (W0), cystometry was performed
Rats were anesthetized with isoflurane (3%). Body temperature was constantly maintained at 37° C. throughout the surgery by placing animals on a thermo-regulated hot plate. A laminectomy was performed and the spinal cord was sectioned with microscissors at T8 level. Care was taken to assure that the section was complete by verifying that a slight retraction of the two segments occurred. Then the muscle was sutured and the skin fixed with staples. The scar was cleaned by Vetedine. For the Sham group, the same surgery was performed without section of the spinal cord.
The urinary bladder was squeezed once a day for 14 days with a gentle massage of the abdomen until restoration of the micturition reflex. In addition, they were administered intramuscularly daily for one week with gentamicin (2 mg/mL, 0.2 ml/rat). Animals were euthanized if they reached humane endpoints: weight loss of greater than 20% of their body weight and/or abnormal behavioral changes indicating presence of pain and distress (prostration, self-mutilation, aggressiveness).
Rats were anesthetized with isoflurane (3%). Body temperature was constantly maintained at 37° C. throughout the surgery by placing animals on a thermo-regulated hot plate. A polyethylene catheter (0.58 and 0.96 mm of inner and outer diameters, respectively) was implanted in the bladder through the dome for intravesical pressure recording. Another catheter (0.58 and 0.96 mm of inner and outer diameters, respectively) was implanted in the stomach for intra-gastric administration. Catheters were exteriorized at the scapular level. After surgery, each rat was housed individually up to the end of the protocol with free access to food and water.
Animals were held under partial restraint in a restraining device. Saline was infused into the bladder at a constant flow rate of 2 or 6 mL/h for sham or SCI rats, respectively. After at least 45 min (3 complete micturition cycles corresponding to basal values), test substances were administered by intra-gastric route. Then, intravesical pressure was recorded for 90 min.
The following cystometric parameters were analyzed (see FIG. 10): • Amplitude of micturition (AM, mmHg). • Threshold pressure (ThP, mmHg). • Intercontraction interval (ICI, sec): time between basal pressure and ThP. ICI was not presented due to different infusion rate in sham and SCI rats. ICI was only analyzed to calculate the bladder capacity. • Bladder capacity (BC, mL) BC=ICI×infusion rate. • Amplitude of non voiding contractions (NVC, mmHg) • Frequency of NVC (number per min).
For each cystometric parameter and for each time period, the comparisons were performed as described below: • Basal values of each cystometric parameter of Sham/Vehicle and SCI/Vehicle groups were compared using unpaired student t test • Basal values of each cystometric parameter of all SCI groups were compared using one-way ANOVA or Kruskal-Wallis test • The 3 interval periods of 30 min post treatment of each cystometric parameter within the same group were compared to corresponding basal values using one-way ANOVA with repeated measures or Friedman test followed by Dunnett's or Dunn's post-test, respectively. • The 3 interval periods of 30 min post treatment of each cystometric parameter were compared between all SCI groups using one-way ANOVA or Kruskal Wallis test followed by Holm-Sidak's or Dunn's post-test versus Vehicle, respectively.

conscious BOO rats [2] = details: Gillespy et al., 2012; cited from earlier work

Compound: Nc1nc(CC(=O)Nc2ccc(CCNC[C@H](O)c3ccccc3)cc2)cs1 [mirabegron, reference compound]
- AM (mmHg or % variation), effect versus vehicle (conscious BOO rats [1]; 0-90 min entire period): not significantly modified
- AM, effect versus basal (conscious BOO rats [1]; 0-90 min entire period): did not significantly modify
- BC expressed in % variation from basal, effect versus vehicle (conscious BOO rats [1]; 0-90 min entire period): not significantly modified
- BC expressed in mL, effect versus vehicle (conscious BOO rats [1]; 0-90 min entire period): no significant difference
- NVC amplitude expressed in % variation from basal, effect versus vehicle (conscious BOO rats [1]; 0-90 min entire period): significantly reduced
- NVC amplitude expressed in mmHg, effect versus vehicle (conscious BOO rats [1]; 0-90 min entire period): not significantly modified
- NVC amplitude, effect versus basal (conscious BOO rats [1]; 0-90 min entire period): did not modify
- NVC frequency (NVC/min or % variation), effect versus vehicle (conscious BOO rats [1]; 0-90 min entire period): not significantly modified
- NVC frequency, effect versus basal (conscious BOO rats [1]; 0-90 min entire period): significantly decreased
- ThP expressed in % variation from basal, effect versus vehicle (conscious BOO rats [1]; 0-90 min entire period): no significant effect
- ThP expressed in mmHg, effect versus vehicle (conscious BOO rats [1]; 0-90 min entire period): not significantly modified
- ThP, effect versus basal (conscious BOO rats [1]; 0-90 min entire period): did not modify
- AM (mmHg or % variation), effect versus vehicle (conscious BOO rats [1]; 60-90 min interval period): no effect
- AM, effect versus basal (conscious BOO rats [1]; 60-90 min interval period): did not significantly modify
- BC expressed in % variation from basal, effect versus vehicle (conscious BOO rats [1]; 60-90 min interval period): no significant difference
- BC expressed in mL, effect versus vehicle (conscious BOO rats [1]; 60-90 min interval period): no significant difference
- NVC amplitude expressed in % variation from basal, effect versus vehicle (conscious BOO rats [1]; 60-90 min interval period): significantly decreased
- NVC amplitude expressed in mmHg, effect versus vehicle (conscious BOO rats [1]; 60-90 min interval period): not significantly modified
- NVC amplitude, effect versus basal (conscious BOO rats [1]; 60-90 min interval period): significantly reduced
- NVC frequency (NVC/min or % variation), effect versus vehicle (conscious BOO rats [1]; 60-90 min interval period): unaffected
- NVC frequency, effect versus basal (conscious BOO rats [1]; 60-90 min interval period): significantly decreased
- ThP expressed in % variation from basal, effect versus vehicle (conscious BOO rats [1]; 60-90 min interval period): significantly decreased
- ThP expressed in mmHg, effect versus vehicle (conscious BOO rats [1]; 60-90 min interval period): not significantly modified
- ThP, effect versus basal (conscious BOO rats [1]; 60-90 min interval period): without effect
- BC, effect versus basal (conscious BOO rats [1]; 0-90 min entire period): did not significantly modify
- BC, effect versus basal (conscious BOO rats [1]; 60-90 min interval period): significantly increased
- AM (amplitude of micturition), effect versus basal (conscious SCI rats): did not significantly modify
- AM (mmHg and % variation), effect versus vehicle (conscious SCI rats): not significantly modified
- BC expressed in % variation from basal, effect versus vehicle (conscious SCI rats): not significantly modified
- BC expressed in mL, effect versus vehicle (conscious SCI rats): no significant difference
- NVC amplitude (mmHg or % variation), effect versus vehicle (conscious SCI rats): not significantly modified
- NVC amplitude, effect versus basal (conscious SCI rats): did not significantly modified
- NVC frequency (NVC/min and % variation), effect versus vehicle (conscious SCI rats): not significantly modified
- NVC frequency, effect versus basal (conscious SCI rats): significantly decreased NVC frequency for the 30-60 and 60-90 min interval periods; also recorded: slightly but significantly decreased
- ThP (mmHg and % variation), effect versus vehicle (conscious SCI rats): not significantly modified
- ThP (threshold pressure), effect versus basal (conscious SCI rats): significantly decreased ThP for the 60-90 min post-administration interval period
- BC (bladder capacity), effect versus basal (conscious SCI rats; 30-min interval periods to 90 min): did not significantly modify
- frequency of NVC (conscious BOO rats [2]): reduces

Reference: US20250381180A1, “METHODS OF TREATING OR PREVENTING OVERACTIVE BLADDER SYNDROME” (Purdue Pharma L.P., priority 2022, published 2025)
